Key:
Assay in all cases: HTRF methyltransferase assay (SAM to SAH)
Assay type in all cases: biochemical
nsp16/nsp10 = target: T1, nsp16/nsp10 (Severe acute respiratory syndrome coronavirus 2, UniProt P0DTD1); conditions: read-out: SARS-CoV-2 / nsp16/nsp10, IC50
T1 construct: gene rep
From the text: HTRF methyltransferase assay (SAM to SAH) on nsp16/nsp10

[1] = target: T2, SARS-CoV-2 nsp14 guanine-N7-methyltransferase (Severe acute respiratory syndrome coronavirus 2, UniProt P0DTD1)
T2 construct: gene rep
From the text: HTRF methyltransferase assay (SAM to SAH) on SARS-CoV-2 nsp14 guanine-N7-methyltransferase

[2] = target: T3, human glycine N-methyltransferase (hGNMT) (Homo sapiens, UniProt Q14749)
T3 construct: gene GNMT; commercial protein (MyBioSource); homotetramer by known biology
T3 sequence (Q14749 2-295): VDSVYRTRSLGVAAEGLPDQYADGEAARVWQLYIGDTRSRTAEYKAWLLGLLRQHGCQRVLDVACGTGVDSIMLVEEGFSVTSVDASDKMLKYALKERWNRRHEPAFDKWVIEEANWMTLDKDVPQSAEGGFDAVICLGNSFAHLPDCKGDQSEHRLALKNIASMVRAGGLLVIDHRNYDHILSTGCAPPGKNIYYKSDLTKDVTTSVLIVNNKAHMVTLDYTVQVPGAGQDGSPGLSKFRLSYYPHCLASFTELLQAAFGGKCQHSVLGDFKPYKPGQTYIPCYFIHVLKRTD
From the text: HTRF methyltransferase assay (SAM to SAH) on human glycine N-methyltransferase (hGNMT)

Compound: Nc1ncnc2c1ncn2[C@@H]1O[C@H](CSCc2ccc(C(=O)O)cc2)[C@@H](O)[C@H]1O [5a, 4-(((Adenosyl)thio)methyl)benzoic acid]
- IC50 (nsp16/nsp10): 1450 ± 70 nM
- IC50 [1]: 500 ± 30 nM
- IC50 [2]: 400 ± 40 nM

Compound: CS(=O)(=O)Nc1cccc(CSC[C@H]2O[C@@H](n3cnc4c(N)ncnc43)[C@H](O)[C@@H]2O)c1 [5c, N-(3-(((Adenosyl)thio)methyl)phenyl)methanesulfonamide]
- IC50 (nsp16/nsp10): 480 ± 30 nM
- IC50 [1]: 280 ± 20 nM
- IC50 [2]: 250 ± 20 nM

Compound: Nc1ncnc2c1ncn2[C@@H]1O[C@H](CSCc2cccc(CC(=O)O)c2)[C@@H](O)[C@H]1O [5d, 2-(3-(((Adenosyl)thio)methyl)phenyl)acetic acid]
- IC50 (nsp16/nsp10): 1840 ± 90 nM
- IC50 [1]: 680 ± 30 nM
- IC50 [2]: 400 ± 30 nM

Compound: Nc1ncnc2c1ncn2[C@@H]1O[C@H](CSCc2cccc(O)c2)[C@@H](O)[C@H]1O [5e, 5′-(((3-Hydroxy)benzyl)thio)-5′-deoxyadenosine]
- IC50 [2]: 600 ± 30 nM

Compound: Nc1ncnc2c1ncn2[C@@H]1O[C@H](CSCc2cccc(CO)c2)[C@@H](O)[C@H]1O [5f, 5′-(((3-Hydroxymethyl)benzyl)thio)-5′-deoxyadenosine]
- IC50 [1]: 740 ± 40 nM
- IC50 [2]: 1200 ± 100 nM

Compound: N#Cc1cccc(CSC[C@H]2O[C@@H](n3cnc4c(N)ncnc43)[C@H](O)[C@@H]2O)c1 [5g, 3-(((Adenosyl)thio)methyl)benzonitrile]
- IC50 [1]: 351 ± 28 nM
- IC50 [2]: 724 ± 58 nM

Compound: Nc1ncnc2c1ncn2[C@@H]1O[C@H](CSCc2cccc(-c3nn[nH]n3)c2)[C@@H](O)[C@H]1O [5h, 5′-((3-(Tetrazolyl)benzyl)thio)-5′-deoxyadenosine]
- IC50 [1]: 340 ± 12 nM
- IC50 [2]: 220 ± 9 nM

Compound: CS(=O)(=O)c1cccc(CSC[C@H]2O[C@@H](n3cnc4c(N)ncnc43)[C@H](O)[C@@H]2O)c1 [5i, 5′-((3-(Methylsulfonyl)benzyl)thio)-5′-deoxyadenosine]
- IC50 [1]: 270 ± 20 nM
- IC50 [2]: 250 ± 20 nM

Compound: CNS(=O)(=O)c1cccc(CSC[C@H]2O[C@@H](n3cnc4c(N)ncnc43)[C@H](O)[C@@H]2O)c1 [5j, 3-(((Adenosyl)thio)methyl)-N-methylbenzenesulfonamide]
- IC50 [1]: 400 ± 19 nM
- IC50 [2]: 350 ± 17 nM

Compound: COC(=O)c1cccc(CSC[C@H]2O[C@@H](n3cnc4c(N)ncnc43)[C@H](O)[C@@H]2O)c1 [5k, Methyl 3-(((adenosyl)thio)methyl)benzoate]
- IC50 [1]: 1350 ± 70 nM
- IC50 [2]: 870 ± 50 nM

Compound: CNC(=O)c1cccc(CSC[C@H]2O[C@@H](n3cnc4c(N)ncnc43)[C@H](O)[C@@H]2O)c1 [5l, 3-(((Adenosyl)thio)methyl)-N-methylbenzamide]
- IC50 [1]: 2790 ± 140 nM
- IC50 [2]: 2780 ± 130 nM

Compound: Nc1ncnc2c1ncn2[C@@H]1O[C@H](CSCc2ccc(Cl)c(C(=O)O)c2)[C@@H](O)[C@H]1O [5m, 5-(((Adenosyl)thio)methyl)-2-chlorobenzoic acid]
- IC50 [1]: 7.7 ± 0.4 nM
- IC50 [2]: 6.6 ± 0.3 nM

Compound: Nc1ncnc2c1ncn2[C@@H]1O[C@H](CSCc2ccc(F)c(C(=O)O)c2)[C@@H](O)[C@H]1O [5n, 5-(((Adenosyl)thio)methyl)-2-fluorobenzoic acid]
- IC50 [1]: 16 ± 2 nM
- IC50 [2]: 6.1 ± 0.3 nM

Compound: Nc1ncnc2c1ncn2[C@@H]1O[C@H](CSCc2cc(Cl)cc(C(=O)O)c2)[C@@H](O)[C@H]1O [5o, 3-(((Adenosyl)thio)methyl)-5-chlorobenzoic acid]
- IC50 [1]: 24 ± 1.2 nM
- IC50 [2]: 15 ± 0.7 nM

Compound: Nc1ncnc2c1ncn2[C@@H]1O[C@H](CSCc2cc(C(=O)O)cc(-c3ccccc3)c2)[C@@H](O)[C@H]1O [5p, 5-(((Adenosyl)thio)methyl)-[1,1′-biphenyl]-3-carboxylic acid]
- IC50 [1]: 0.58 ± 0.03 nM
- IC50 [2]: 0.97 ± 0.05 nM

Compound: Nc1ncnc2c1ncn2[C@@H]1O[C@H](CSCc2ccc(-c3ccccc3)c(C(=O)O)c2)[C@@H](O)[C@H]1O [5r, 4-(((Adenosyl)thio)methyl)-[1,1′-biphenyl]-2-carboxylic acid]
- IC50 [1]: 36 ± 1.8 nM
- IC50 [2]: 10 ± 0.5 nM

Compound: Nc1ncnc2c1ncn2[C@@H]1O[C@H](CSCc2cc(C(=O)O)cc(-c3ccc(O)cc3)c2)[C@@H](O)[C@H]1O [5t, 5-(((Adenosyl)thio)methyl)-4′-hydroxy-[1,1′-biphenyl]-3-carboxylic acid]
- IC50 [1]: 4.2 ± 0.2 nM
- IC50 [2]: 4.5 ± 0.2 nM

Compound: Nc1ncnc2c1ncn2[C@@H]1O[C@H](CSCc2cc(C#CCO)cc(C(=O)O)c2)[C@@H](O)[C@H]1O [5v, 3-(((Adenosyl)thio)methyl)-5-(3-hydroxyprop-1-yn-1-yl)benzoic acid]
- IC50 [1]: 12 ± 0.6 nM
- IC50 [2]: 9.8 ± 0.5 nM

Compound: Nc1ncnc2c1ncn2[C@@H]1O[C@H](CSc2ccc(Cl)c(C(=O)O)c2)[C@@H](O)[C@H]1O [10a, 2-Chloro-5-((adenosyl)thio)benzoic acid]
- IC50 (nsp16/nsp10): 30 ± 4 nM
- IC50 [1]: 20 ± 2 nM
- IC50 [2]: 13 ± 2 nM

Compound: Nc1ncnc2c1ncn2[C@@H]1O[C@H](CSc2cc(C(=O)O)ccc2Cl)[C@@H](O)[C@H]1O [10b, 4-Chloro-5-((adenosyl)thio)benzoic acid]
- IC50 (nsp16/nsp10): 2300 ± 120 nM
- IC50 [1]: 1300 ± 60 nM
- IC50 [2]: 330 ± 20 nM

Compound: Nc1ncnc2c1ncn2[C@@H]1O[C@H](CSc2ccc(Br)c(C(=O)O)c2)[C@@H](O)[C@H]1O [10c, 2-Bromo-5-((adenosyl)thio)benzoic acid]
- IC50 [1]: 24 ± 2 nM
- IC50 [2]: 8.2 ± 0.4 nM

Compound: COc1ccc(SC[C@H]2O[C@@H](n3cnc4c(N)ncnc43)[C@H](O)[C@@H]2O)cc1C(=O)O [10d, 2-Methoxy-5-((adenosyl)thio)benzoic acid]
- IC50 [1]: 17 ± 0.9 nM
- IC50 [2]: 13 ± 0.6 nM

Compound: Nc1ncnc2c1ncn2[C@@H]1O[C@H](CSc2ccc(-c3ccccc3)c(C(=O)O)c2)[C@@H](O)[C@H]1O [10e, 4-((Adenosyl)thio)-[1,1′-biphenyl]-2-carboxylic acid]
- IC50 [1]: 25 ± 2 nM
- IC50 [2]: 24 ± 1 nM

Compound: Nc1ncnc2c1ncn2[C@@H]1O[C@H](CSc2ccc(C(=O)O)c(-c3ccccc3)c2)[C@@H](O)[C@H]1O [10f, 5-((Adenosyl)thio)-[1,1′-biphenyl]-2-carboxylic acid]
- IC50 [1]: 420 ± 19 nM
- IC50 [2]: 210 ± 10 nM
